In patent US4857549A, “Antitumor compounds” (priority 1988, dated 1989):
Values joined by “and” are separate entries in the source; they are usually repeats but may differ in a detail not shown here. Equal entries are not always repeated. Where two headings read alike, the source gives them in different places.

Legend:
P388 leukemia = conditions: for ILS (maximum increase in lifespan): ip P388 leukemia mice, ip days 1-5, slash-separated figures are separate experiments
in vivo = conditions: mouse, ip
[1] = test system: M5076 reticulum cell sarcoma; assay: ip M5076 reticulum cell sarcoma assay in mice; conditions: for MTD (maximally tolerated dose) / ILS max (maximum increase in lifespan): Table C, ip qD × 10; for MTD (maximally tolerated dose): B6D2F1 female mice; for ILS max (maximum increase in lifespan): ip M5076 sarcoma mice, slash = separate experiments, compound 2: seven experiments; for activity in the ip M5076 reticulum cell sarcoma assay: in words, based on Tables C and D
Procedure: Another chemosensitive tumor model is intraperitoneally (ip) implanted M5076 reticulum cell sarcoma in mice. In this system B6D2F1 female mice are inoculated with 0.5 ml of a 10 percent weight:volume (w:v) brei of M5076 prepared from pooled subcutaneous (sc) tumors excised at about 21 days from c57B1/6 donor mice. Drugs are administered ip. Daily treatment is begun 24 hours after implantation and is continued for ten days. The treatment regimen for M5076 is more prolonged than for P388 because of the slower growth rate and longer control survival time of the M5076 tumor.

[2] = Table B, B6D2F1 female mice, ip qD × 5
[3] = Table B, compound 2: 35 experiments

[Cl][Cu][PH](CC[PH]([Cu][Cl])(c1ccccc1)c1ccccc1)(c1ccccc1)c1ccccc1 [Compound 14, μ-[1,2-Bis(Diphenylphosphino)Ethane]Bis[Chlorocopper(I)]]
MTD (maximally tolerated dose) (P388 leukemia; [2]): 4 mg/kg | ILS (maximum increase in lifespan) (P388 leukemia; [3]): 65% and 79%

CC(C(C)P(c1ccccc1)c1ccccc1)P(c1ccccc1)c1ccccc1 (single isomer, unassigned; (-)) [Compound 42]
MTD (in vivo): 48 mg/kg

COc1ccc([PH](CC[PH]([Au][Cl])(c2ccc(OC)cc2)c2ccc(OC)cc2)([Au][Cl])c2ccc(OC)cc2)cc1 [Compound 24, μ-[1,2-Bis[Bis(4-methoxyphenyl)phosphino]ethanel]bis[chlorogold(I)]]
MTD (maximally tolerated dose) (P388 leukemia; [2]): 8 mg/kg

C(=C\P(c1ccccc1)c1ccccc1)/P(c1ccccc1)c1ccccc1 [Compound 41, Trans-bis(1,2-diphenylphosphino)ethylene]
MTD (in vivo): 128 mg/kg

CCOC(=O)C(N)C[S][Au][PH](CC[PH]([Au][S]CC(N)C(=O)OCC)(c1ccccc1)c1ccccc1)(c1ccccc1)c1ccccc1 (stereo not drawn) [Compound 20]
MTD (maximally tolerated dose) (P388 leukemia; [2]): 6 mg/kg | ILS (maximum increase in lifespan) (P388 leukemia; [3]): 50% and 56%

μ-[1,2-Bis[Bis(2-Methylthiophenyl)Phosphino]Ethane]Bis[Chlorogold(I)] [Compound 28]
MTD (maximally tolerated dose) (P388 leukemia; [2]): 8 mg/kg

C1CCC(P(CCP(C2CCCCC2)C2CCCCC2)C2CCCCC2)CC1 [Compound 44, 1,2-bis(dicyclohexylphosphino)ethane]
MTD (in vivo): 32 mg/kg

O=[N+]([O-])[O][Ag][PH](CC[PH]([Ag][O][N+](=O)[O-])(c1ccccc1)c1ccccc1)(c1ccccc1)c1ccccc1 [Compound 13, μ-[1,2-Bis(Diphenylphosphino)Ethane]Bis[Nitratosilver(I)]]
MTD (maximally tolerated dose) (P388 leukemia; [2]): 6 mg/kg | ILS (maximum increase in lifespan) (P388 leukemia; [3]): 45% and 30%

Fc1cccc([PH](CC[PH]([Au][Cl])(c2cccc(F)c2)c2cccc(F)c2)([Au][Cl])c2cccc(F)c2)c1 [Compound 26, μ-[1,2-Bis[Bis(3-Fluorophenyl)Phosphino]Ethane]Bis [Chlorogold (I)]]
MTD (maximally tolerated dose) (P388 leukemia; [2]): 8 mg/kg | ILS (maximum increase in lifespan) (P388 leukemia; [3]): 60% and 55%

c1ccc(P(CCCCP(c2ccccc2)c2ccccc2)c2ccccc2)cc1 [Compound 38, Bis(1,4-diphenylphosphino)butane]
MTD (in vivo): 28 mg/kg

CCP(CC)CCP(CC)CC [Compound 50]
MTD (maximally tolerated dose) (P388 leukemia; Table BI, B6D2F1 female mice, ip qD × 5): 128 mg/kg | ILS (maximum increase in lifespan) (P388 leukemia; Table BI, compound 33: 41 experiments): 55%

C[C@H](C[PH]([Au][Cl])(c1ccccc1)c1ccccc1)[PH]([Au][Cl])(c1ccccc1)c1ccccc1 [Compound 10, μ-[(R)-(+)-1,2Bis(Diphenylphosphino)Propane]Bis[Chlorogold(I)]]
MTD (maximally tolerated dose) (P388 leukemia; [2]): 6 mg/kg | ILS (maximum increase in lifespan) (P388 leukemia; [3]): 50% and 25%

Fc1cccc(P(CCP(c2cccc(F)c2)c2cccc(F)c2)c2cccc(F)c2)c1 [Compound 46, 1,2-Ethanediyl-bis[bis(3-fluorophenyl)phosphine]]
MTD (in vivo): 32 mg/kg

Fc1ccc([PH](CC[PH]([Au][Cl])(c2ccc(F)cc2)c2ccc(F)cc2)([Au][Cl])c2ccc(F)cc2)cc1 [Compound 25, μ-[1,2-Bis[Bis(4-Fluorophenyl)Phosphino]Ethane]Bis-[Chlorogold (I)]]
MTD (maximally tolerated dose) (P388 leukemia; [2]): 8 mg/kg | ILS (maximum increase in lifespan) (P388 leukemia; [3]): 80% and 75%

CC[PH](CC)(CC[PH]([Au][Cl])(c1ccccc1)c1ccccc1)[Au][Cl] [Compound 21, μ-[1-Diethylphosphino-2-Diphenylphosphino-Ethane]bis-[Chlorogold(I)]]
MTD (maximally tolerated dose) (P388 leukemia; [2]): 16 mg/kg | ILS (maximum increase in lifespan) (P388 leukemia; [3]): 30%

N#C[S][Au][PH](CC[PH]([Au][S]C#N)(c1ccccc1)c1ccccc1)(c1ccccc1)c1ccccc1 [Compound 16]
MTD (maximally tolerated dose) [1]: 5 mg/kg | ILS max (maximum increase in lifespan) [1]: 52% | activity in the ip M5076 reticulum cell sarcoma assay [1]: good activity | MTD (maximally tolerated dose) (P388 leukemia; [2]): 6 mg/kg | ILS (maximum increase in lifespan) (P388 leukemia; [3]): 36% and 62% and 45%

Fc1c(F)c(F)c([PH](CC[PH]([Au][Cl])(c2c(F)c(F)c(F)c(F)c2F)c2c(F)c(F)c(F)c(F)c2F)([Au][Cl])c2c(F)c(F)c(F)c(F)c2F)c(F)c1F [Compound 27, μ-[1,2-Bis[bis(2,3,4,5,6-pentafluorophenyl)phosphine]ethane]-bis[chlorogold(I)]]
MTD (maximally tolerated dose) (P388 leukemia; [2]): 16 mg/kg | ILS (maximum increase in lifespan) (P388 leukemia; [3]): 30% and 25%

c1ccc(P(CCCCCP(c2ccccc2)c2ccccc2)c2ccccc2)cc1 [Compound 39, Bis (1,5-diphenylphosphino)pentane]
MTD (in vivo): 8 mg/kg

FC(F)(F)c1ccc([PH](CC[PH]([Au][Cl])(c2ccc(C(F)(F)F)cc2)c2ccc(C(F)(F)F)cc2)([Au][Cl])c2ccc(C(F)(F)F)cc2)cc1 [Compound 29]
MTD (maximally tolerated dose) (P388 leukemia; [2]): 8 mg/kg | ILS (maximum increase in lifespan) (P388 leukemia; [3]): 37% and 44%

CCP(CC)CCP(CC)CC [Compound 49]
MTD (in vivo): 64 mg/kg

CC(=O)[O][Au][PH](CC[PH]([Au][O]C(C)=O)(c1ccccc1)c1ccccc1)(c1ccccc1)c1ccccc1 [Compound 17, μ-[1,2-Bis(Diphenylphosphino)Ethane]Bis[Acetatogold(I)]]
MTD (maximally tolerated dose) [1]: 4 mg/kg | ILS max (maximum increase in lifespan) [1]: 54% and 67% | activity in the ip M5076 reticulum cell sarcoma assay [1]: good activity | MTD (maximally tolerated dose) (P388 leukemia; [2]): 4 mg/kg | ILS (maximum increase in lifespan) (P388 leukemia; [3]): 73% and 64%

CC(C[PH]([Au][Cl])(c1ccccc1)c1ccccc1)[PH]([Au][Cl])(c1ccccc1)c1ccccc1 (stereo not drawn) [Compound 9, μ-[1,2-Bis(Diphenylphosphino)Propane]Bis[Chlorogold(I)]]
MTD (maximally tolerated dose) [1]: 5 mg/kg | ILS max (maximum increase in lifespan) [1]: 98% | activity in the ip M5076 reticulum cell sarcoma assay [1]: good activity | MTD (maximally tolerated dose) (P388 leukemia; [2]): 6 mg/kg | ILS (maximum increase in lifespan) (P388 leukemia; [3]): 45% and 60% and 35%

FC(F)(F)[S][Au][PH](CC[PH]([Au][S]C(F)(F)F)(c1ccccc1)c1ccccc1)(c1ccccc1)c1ccccc1 [Compound 18, μ-[1,2-Bis(diphenylphosphino)ethane]Bis[trifluoromethyl-thiogold(I)]]
ILS max (maximum increase in lifespan) [1]: 70%

CCOC(=S)[S][Au][PH](CC(O)[PH]([Au][S]C(=S)OCC)(c1ccccc1)c1ccccc1)(c1ccccc1)c1ccccc1 (stereo not drawn) [Compound 19, μ-[1,2-Bis(Diphenylphosphino)Ethanol]Bis[O-Ethyldithiocarbonatogold(I)]]
MTD (maximally tolerated dose) (P388 leukemia; [2]): 6 mg/kg

CSc1ccccc1P(CCP(c1ccccc1SC)c1ccccc1SC)c1ccccc1SC [Compound 47, 1,2-ethanediyl-bis[bis(2-methylthiophenyl)phosphine]]
MTD (in vivo): 64 mg/kg

Fc1ccc(P(CCP(c2ccc(F)cc2)c2ccc(F)cc2)c2ccc(F)cc2)cc1 [Compound 45, 1,2-ethanediyl-bis[bis(4-fluorophenyl)phosphine]]
MTD (in vivo): 8 mg/kg

CC(C(C)[PH]([Au][Cl])(c1ccccc1)c1ccccc1)[PH]([Au][Cl])(c1ccccc1)c1ccccc1 [Compound 11, μ-[(-) (2S,3S)-2,3-Bis(Diphenylphosphino)Butane]Bis[Chlorogold(I)]]
MTD (maximally tolerated dose) (P388 leukemia; mouse, in vivo, ip): 6 mg/kg

CSc1ccc([PH](CC[PH]([Au][Cl])(c2ccc(SC)cc2)c2ccc(SC)cc2)([Au][Cl])c2ccc(SC)cc2)cc1 [Compound 30, μ-[1,2-Bis[Bis(4-Methylthiophenyl)Phosphino]ethane]-Bis[chlorogold(I)]]
MTD (maximally tolerated dose) (P388 leukemia; [2]): 8 mg/kg | ILS (maximum increase in lifespan) (P388 leukemia; [3]): 37% and 65%

[Cl][Au][PH](C=C[PH]([Au][Cl])(c1ccccc1)c1ccccc1)(c1ccccc1)c1ccccc1 [Compound 8, μ-[Trans-1,2-Bis(Diphenylphosphino)Ethylene]Bis[Chlorogold(I)]]
MTD (maximally tolerated dose) (P388 leukemia; [2]): 24 mg/kg | ILS (maximum increase in lifespan) (P388 leukemia; [3]): 33% and 36%

[Cl][Au][PH](CC[PH](Cc1ccccc1)(Cc1ccccc1)[Au][Cl])(Cc1ccccc1)Cc1ccccc1 [Compound 23, μ-[1,2-Bis(Dibenzylphosphino)Ethane]Bis[Chlorogold (I)]]
MTD (maximally tolerated dose) [1]: 4 mg/kg | ILS max (maximum increase in lifespan) [1]: 40% | MTD (maximally tolerated dose) (P388 leukemia; [2]): 4 mg/kg | ILS (maximum increase in lifespan) (P388 leukemia; [3]): 45% and 30%

[2H]c1c([2H])c([2H])c([PH](CC[PH]([Au][Cl])(c2c([2H])c([2H])c([2H])c([2H])c2[2H])c2c([2H])c([2H])c([2H])c([2H])c2[2H])([Au][Cl])c2c([2H])c([2H])c([2H])c([2H])c2[2H])c([2H])c1[2H] [Compound 31, μ-[1,2-Bis[di(phenyl-d5)phosphino]ethane]bis-[chlorogold(I)]]
MTD (maximally tolerated dose) (P388 leukemia; [2]): 6 mg/kg | ILS (maximum increase in lifespan) (P388 leukemia; [3]): 40% and 65%

CSc1ccc(P(CCP(c2ccc(SC)cc2)c2ccc(SC)cc2)c2ccc(SC)cc2)cc1 [Compound 48, 1,2-Ethanediyl-Bis[Bis(4-methylthiophenyl)phosphine]]
MTD (in vivo): 32 mg/kg
